Data: PubChem BioAssay (NCI)
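Exposure lasted 48 hours, with cells grown in 96-well plates and compounds tested at five concentrations. GI50 is the concentration that inhibits growth by half. The concentration for full growth arrest is given as TGI.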

How the values were obtained:
Test in all cases: NCI-60 cell line screen, 48 h
[1] = test system: HCT-116 colon
[2] = test system: HCT-15 colon
[3] = test system: IGROV1 ovarian
[4] = test system: OVCAR-3 ovarian
[5] = test system: SF-539 CNS
[6] = test system: SK-MEL-5 melanoma
[7] = test system: SN12C renal
[8] = test system: T-47D breast
[9] = test system: TK-10 renal
[10] = test system: MALME-3M melanoma

Row | Structure (SMILES) | GI50 [1] | TGI [1] | GI50 [2] | TGI [2] | GI50 [3] | TGI [3] | GI50 [4] | TGI [4] | GI50 [5] | TGI [5] | GI50 [6] | TGI [6] | GI50 [7] | TGI [7] | GI50 [8] | TGI [8] | GI50 [9] | TGI [9] | GI50 [10] | TGI [10]
1 | COc1ccc(Cn2c(N)c(S(=O)(=O)c3ccc(Cl)cc3)c3nc(C#N)c(C#N)nc32)cc1 | > 50 µM | > 50 µM | > 50 µM | > 50 µM | 21.6 µM | > 50 µM | 2.9 µM | 19.4 µM | > 50 µM | > 50 µM | 49.4 µM | > 50 µM | 1.45 µM | 17.9 µM | > 50 µM | > 50 µM | 11.6 µM | 41.5 µM | – | –
2 | CCc1ccc(/C=C/c2ccc(O)c3ncccc23)[n+](C)c1 | 4.02 µM | > 100 µM | 40.9 µM | > 100 µM | 11.4 µM | > 100 µM | 0.671 µM | > 23.4 µM | 20.4 µM | > 100 µM | 3.55 µM | > 100 µM | 0.457 µM | > 100 µM | 1.66 µM | > 100 µM | > 100 µM | > 100 µM | 13.7 µM | > 100 µM
3 | Nc1c(C(=O)c2ccccc2)cnn1-c1ccc(F)cc1 | > 25 µM | > 25 µM | > 25 µM | > 25 µM | > 25 µM | > 25 µM | > 25 µM | > 25 µM | > 25 µM | > 25 µM | > 25 µM | > 25 µM | > 25 µM | > 25 µM | > 25 µM | > 25 µM | > 25 µM | > 25 µM | > 25 µM | > 25 µM
4 | CN(C)c1ncnc2c1ncn2CCn1cnc2c(N(C)C)ncnc21 | – | > 100 µM | – | > 100 µM | – | > 100 µM | – | > 100 µM | – | > 100 µM | – | > 100 µM | – | > 100 µM | – | > 100 µM | – | > 100 µM | – | > 100 µM
5 | COc1cc(/C=C\c2cc(OC)c(OC)c(OC)c2)cc(N/C=C\C(=O)c2cc(OC)c(OC)c(OC)c2)c1OC | 2.78 µM | > 100 µM | 3.08 µM | > 100 µM | 6.06 µM | > 100 µM | 2.31 µM | 5.82 µM | 1.92 µM | 4.51 µM | 1.69 µM | 4.48 µM | 4.03 µM | > 100 µM | 1.68 µM | 6.83 µM | 5.93 µM | > 100 µM | 2.91 µM | > 100 µM
6 | O=C(Nc1cc(C(F)(F)F)ccc1Cl)c1cccc(NC2=C(Cl)C(=O)N(Cc3ccccc3)C2=O)c1 | 10.3 µM | > 100 µM | 23.5 µM | > 100 µM | 2.81 µM | > 100 µM | 34.3 µM | > 100 µM | 26.4 µM | 53.7 µM | 12.8 µM | > 100 µM | 32.1 µM | > 100 µM | 81.1 µM | > 100 µM | 34.2 µM | > 100 µM | – | –
7 | O=[P@@]1(c2ccccc2)O[C@H](COCc2ccccc2)[C@@H](OCc2ccccc2)[C@H](OCc2ccccc2)[C@H]1NCc1ccccc1 | 2.74 µM | > 100 µM | 3.54 µM | > 100 µM | – | – | 3.17 µM | 19.3 µM | 4.74 µM | > 100 µM | 2.59 µM | 6.79 µM | 1.83 µM | 3.6 µM | 2.85 µM | 7.92 µM | 3.69 µM | > 100 µM | – | –
8 | CCc1c(Cl)c(C)cc(O)c1Cl | – | > 100 µM | – | 38.9 µM | – | > 100 µM | – | > 100 µM | – | 78.9 µM | – | 28.6 µM | – | 30.9 µM | – | > 100 µM | – | > 100 µM | – | > 100 µM
9 | S=c1[nH]c2c(Cl)c(Cl)c(Cl)c(Cl)c2[nH]1 | – | 46.8 µM | – | 53.5 µM | – | 37.8 µM | – | 97.3 µM | – | 26.3 µM | – | 37.2 µM | – | 47 µM | – | > 100 µM | – | 55.4 µM | – | 38.5 µM
10 | CC(C)=CCc1cc2c(cc1O)OC[C@H]1c3cc4c(cc3O[C@@H]21)OCO4 | – | 32.2 µM | – | > 100 µM | – | > 100 µM | – | > 100 µM | – | > 100 µM | – | 39.3 µM | – | – | – | > 100 µM | – | > 100 µM | – | –
11 | CC1(C)N=C(N)N=C(N)N1c1ccc(CCCCc2ccc(Cl)c(S(=O)(=O)F)c2)c(Cl)c1 | 0.31 µM | > 39.1 µM | 0.597 µM | > 100 µM | 0.117 µM | 20.7 µM | 2.22 µM | 15.1 µM | 0.542 µM | 13 µM | 0.471 µM | 11.8 µM | 0.306 µM | 16.2 µM | 3.11 µM | 15.1 µM | 12.3 µM | 48.8 µM | 2.36 µM | 12.5 µM
12 | CS(=O)(=O)Nc1cc(-c2ccc3ncnc(Nc4c(Cl)ccc5c4OCO5)c3c2)cnc1Cl | 0.269 µM | 1.97 µM | 0.204 µM | 1.49 µM | 0.0332 µM | 0.209 µM | 0.127 µM | 0.925 µM | 0.208 µM | 0.988 µM | 0.191 µM | 0.465 µM | 0.202 µM | > 100 µM | 0.0243 µM | 0.606 µM | 0.047 µM | 0.888 µM | 0.0525 µM | 0.515 µM
13 | Oc1ccc2ccccc2c1N=Nc1ccc(Br)cc1 | – | > 100 µM | – | > 100 µM | – | > 100 µM | – | > 100 µM | – | – | – | > 100 µM | – | > 100 µM | – | > 100 µM | – | > 100 µM | – | > 100 µM
14 | C[C@H](Nc1cc(Cl)nc2c1cnn2[C@@H]1O[C@H](COP(=O)(O)CP(=O)(O)O)[C@@H](O)[C@H]1O)c1ccccc1F | > 100 µM | > 100 µM | > 100 µM | > 100 µM | > 100 µM | > 100 µM | > 100 µM | > 100 µM | > 100 µM | > 100 µM | > 100 µM | > 100 µM | > 100 µM | > 100 µM | > 100 µM | > 100 µM | > 100 µM | > 100 µM | > 100 µM | > 100 µM
15 | Cc1cc2cc3c(=O)[nH]c(=O)[nH]c3nc2cc1C | – | > 100 µM | – | > 100 µM | – | > 100 µM | – | > 100 µM | – | > 100 µM | – | > 100 µM | – | > 100 µM | – | > 100 µM | – | > 100 µM | – | > 100 µM
